Assay: Measurement of r1 and r2 relaxivities (Bruker mq60 relaxometer)
Assay type: physicochemical
Conditions: in water at 60 MHz and 40° C.
Protocol: Manganese containing chelates were dissolved in water at concentrations ranging from […] Mn. T1 and T2 relaxation times were then measured at 60 MHz and 40° C. using a Bruker mq60 relaxometer. Linear fits (R^2>0.99 in all cases) of 1/T1 or 1/T2 as a function of Mn concentration gave r1 or r2 values respectively.
The values in Table 1 are relaxivities in water. The r1 value represents the ability of the chelate to generate T1 (or positive) contrast in a MR scanner while the r2 value represents the ability of the chelate to generate T2 (or negative) contrast in a MR scanner.

SMILES	r1 relaxivity [mM⁻¹ s⁻¹]
CN1CCN2Cc3cccc(n3)CN(CC1)C(CCCCNC(=O)[C@H](O)[C@@H](O)C(=O)O)C(=O)[O][Mn][O]C(=O)C2CCCCNC(=O)[C@H](O)[C@@H](O)C(=O)O (stereo partly shown) [Mn Chelate 2]	4.6
CN1CCN2CC(=O)[O][Mn][O]C(=O)CN(CC1)Cc1cccc(n1)C2 [Mn Platform, reference compound]	1.7
CN1CCN2Cc3cccc(n3)CN(CC1)C(CCC(=O)NCCS(=O)(=O)O)C(=O)[O][Mn][O]C(=O)C2CCC(=O)NCCS(=O)(=O)O (stereo not shown) [Mn Chelate 1]	3.4

Assay: not given
Conditions: estimated in DMSO; arm —C(═O)—N—R2R3 of Formula I; cited from earlier work

SMILES	pKa (approx.)
CC(=O)NCCc1cc([N+](=O)[O-])ccc1S	~5.5
CC(=O)NCCS(=O)(=O)O	~1.6
CC(=O)NCCc1ccc(C(C#N)C#N)cc1	~4.2
CC(=O)NCCc1ccc(C(=O)C[N+](=O)[O-])cc1	~7.7
CC(=O)NC/C=C1\SC(=O)NC1=O	~6.8
CC(=O)NCCc1cc([N+](=O)[O-])cc([N+](=O)[O-])c1O	~5.1
CC(=O)NCCc1ccc(S(=O)(=O)C[N+](=O)[O-])cc1	~7.1

Reference: patent US11110186B2, “Anionic chelate compounds” (GENERAL ELECTRIC COMPANY, priority 2017, dated 2021)
